experiment: recombinant UMI read abundance after kanamycin selection (control-corrected) (log10(CPM+1)); higher = more efficient recombination; extreme values may be limits of the assay; sequences stand for … in AGTGCAGAGAAAATCGGCCAGTTTTCTCTGCCTGCAGTCCGCATGCCGTGGGACCCCTTGGGTTCTAACCTGTTGCCTAGATTTATGCAGCGGACTGCCTTTCTCCCAAAGTGATAAACCGG…AGGTTGGTTTCACT; site = the 11-nt donor
Method in brief: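 Two replicates each of selected and unselected plating were used in this pooled Escherichia coli screen of donor and donor-binding-loop pairs for the IS621 bridge recombinase. Selection was with IPTG (0.07 mM) and kanamycin. Counts of recombinant UMIs, amplified across the donor–target junction, were converted to CPM, averaged, scaled by control-derived factors and reported as log10(CPM+1).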
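Further: IS621 bridge recombinase in Escherichia coli cells against a fixed T5 target plasmid.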

Sequence | recombinant UMI read abundance (log10)
TTTAAAGCATGGACCGGTTTTCCCGGTAATCCGTATTTGAC (site TTTAAAGCTGT) | 0
TTTAACCCATGGACCGGTTTTCCCGGTAATCCGTATTTGAA (site TTTAACCCTTT) | 0.00893
TTTAACTCATGGACCGGTTTTCCCGGTAATCCGTATTTGAA (site TTTAACTCTTT) | 0.34
TTTAATACATGGACCGGTTTTCCCGGTAATCCGTATTTGAA (site TTTAATACTTT) | 0.00702
TTTACGTCATGGACCGGTTTTCCCGGTAATCCGTATTTGAT (site TTTACGTCTAT) | 0.00816
TTTAGACCATGGACCGGTTTTCCCGGTAATCCGTATTTGTC (site TTTAGACCTGA) | 0
TTTATCCCATGGACCGGTTTTCCCGGTAATCCGTATTTGAT (site TTTATCCCTAT) | 0.263
TTTCAGGCATGGACCGGTTTTCCCGGTAATCCGTATTTGAG (site TTTCAGGCTCT) | 0.155
TTTCTAGCATGGACCGGTTTTCCCGGTAATCCGTATTTGGT (site TTTCTAGCTAC) | 0.0163
TTTCTCACATGGACCGGTTTTCCCGGTAATCCGTATTTGCC (site TTTCTCACTGG) | 0.843
TTTCTGTCATGGACCGGTTTTCCCGGTAATCCGTATTTGTA (site TTTCTGTCTTA) | 0
TTTGAAGCATGGACCGGTTTTCCCGGTAATCCGTATTTGCG (site TTTGAAGCTCG) | 1.11
TTTGCAGCATGGACCGGTTTTCCCGGTAATCCGTATTTGCT (site TTTGCAGCTAG) | 0.00605
TTTGCAGCATGGACCGGTTTTCCCGGTAATCCGTATTTGCT (site TTTGCCGCTAG) | 0.0123
TTTGCAGCATGGACCGGTTTTCCCGGTAATCCGTATTTGCT (site TTTGCGGCTAG) | 0.00881
TTTGCAGCATGGACCGGTTTTCCCGGTAATCCGTATTTGCT (site TTTGCTGCTAG) | 0.00602
TTTGCGCCATGGACCGGTTTTCCCGGTAATCCGTATTTGCT (site TTTGCGACTAG) | 0.0112
TTTGCGCCATGGACCGGTTTTCCCGGTAATCCGTATTTGCT (site TTTGCGCCTAG) | 0.00475
TTTGCGCCATGGACCGGTTTTCCCGGTAATCCGTATTTGCT (site TTTGCGGCTAG) | 0

Sequence | recombinant UMI read abundance (log10)
TTTGCGCCATGGACCGGTTTTCCCGGTAATCCGTATTTGCT (site TTTGCGTCTAG) | 0.0103
TTTGCGGCATGGACCGGTTTTCCCGGTAATCCGTATTTGCA (site TTTGCGGCTAG) | 0.0111
TTTGCGGCATGGACCGGTTTTCCCGGTAATCCGTATTTGCA (site TTTGCGGCTCG) | 0
TTTGCGGCATGGACCGGTTTTCCCGGTAATCCGTATTTGCA (site TTTGCGGCTGG) | 0
TTTGCGGCATGGACCGGTTTTCCCGGTAATCCGTATTTGCA (site TTTGCGGCTTG) | 0.222
TTTGCGTCATGGACCGGTTTTCCCGGTAATCCGTATTTGCT (site TTTGCGACTAG) | 0
TTTGCGTCATGGACCGGTTTTCCCGGTAATCCGTATTTGCT (site TTTGCGCCTAG) | 0.0115
TTTGCGTCATGGACCGGTTTTCCCGGTAATCCGTATTTGCT (site TTTGCGGCTAG) | 0.018
TTTGCGTCATGGACCGGTTTTCCCGGTAATCCGTATTTGCT (site TTTGCGTCTAG) | 0.251
TTTGCTGCATGGACCGGTTTTCCCGGTAATCCGTATTTGTG (site TTAGCTGCTCA) | 0.0128
TTTGCTGCATGGACCGGTTTTCCCGGTAATCCGTATTTGTG (site TTCGCTGCTCA) | 0.00352
TTTGCTGCATGGACCGGTTTTCCCGGTAATCCGTATTTGTG (site TTGGCTGCTCA) | 0.0177
TTTGCTGCATGGACCGGTTTTCCCGGTAATCCGTATTTGTG (site TTTGCTGCTCA) | 0.0238
TTTGGCCCATGGACCGGTTTTCCCGGTAATCCGTATTTGCC (site TTTGGCCCTGG) | 0
TTTGTGACATGGACCGGTTTTCCCGGTAATCCGTATTTGAG (site TTTGTGACTCT) | 0.0187
TTTGTGGCATGGACCGGTTTTCCCGGTAATCCGTATTTGCT (site TTTGAGGCTAG) | 0
TTTGTGGCATGGACCGGTTTTCCCGGTAATCCGTATTTGCT (site TTTGCGGCTAG) | 0.00488
TTTGTGGCATGGACCGGTTTTCCCGGTAATCCGTATTTGCT (site TTTGGGGCTAG) | 0.022
TTTGTGGCATGGACCGGTTTTCCCGGTAATCCGTATTTGCT (site TTTGTGGCTAG) | 0.113

From the supplement of paper PMC11208160
